Biological target: truncated form of human NaV 1.8 with full channel activity (Homo sapiens, UniProt Q9Y5Y9)
Assay: E-VIPR Assay Method A for detecting and measuring Nav inhibition (HEK cells, membrane potential FRET dyes, electrical stimulation)
Assay type: cell-based
Details: HEK cells expressing human NaV 1.8, HS (human serum) in compound loading buffer, 11 point dose response, top dose 3 μM, Table 20, read-out: Nav 1.8 MedChem Optical Assay EVIPR Assay Method A HS IC50
Procedure, shortened: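 HEK cells expressing truncated human NaV1.8, loaded with CC2-DMPE/DiSBAC6(3) FRET dyes, incubated 30 min at room temp with compound (0.625% DMSO), then electrically stimulated (1.25 A biphasic, 10 Hz, 10 s). Inhibition from 460/580 nm ratio Rf/Ri, normalised to positive and DMSO controls.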

truncated form of human NaV 1.8 with full channel activity, sequence (Q9Y5Y9 126-1722 limits assumed): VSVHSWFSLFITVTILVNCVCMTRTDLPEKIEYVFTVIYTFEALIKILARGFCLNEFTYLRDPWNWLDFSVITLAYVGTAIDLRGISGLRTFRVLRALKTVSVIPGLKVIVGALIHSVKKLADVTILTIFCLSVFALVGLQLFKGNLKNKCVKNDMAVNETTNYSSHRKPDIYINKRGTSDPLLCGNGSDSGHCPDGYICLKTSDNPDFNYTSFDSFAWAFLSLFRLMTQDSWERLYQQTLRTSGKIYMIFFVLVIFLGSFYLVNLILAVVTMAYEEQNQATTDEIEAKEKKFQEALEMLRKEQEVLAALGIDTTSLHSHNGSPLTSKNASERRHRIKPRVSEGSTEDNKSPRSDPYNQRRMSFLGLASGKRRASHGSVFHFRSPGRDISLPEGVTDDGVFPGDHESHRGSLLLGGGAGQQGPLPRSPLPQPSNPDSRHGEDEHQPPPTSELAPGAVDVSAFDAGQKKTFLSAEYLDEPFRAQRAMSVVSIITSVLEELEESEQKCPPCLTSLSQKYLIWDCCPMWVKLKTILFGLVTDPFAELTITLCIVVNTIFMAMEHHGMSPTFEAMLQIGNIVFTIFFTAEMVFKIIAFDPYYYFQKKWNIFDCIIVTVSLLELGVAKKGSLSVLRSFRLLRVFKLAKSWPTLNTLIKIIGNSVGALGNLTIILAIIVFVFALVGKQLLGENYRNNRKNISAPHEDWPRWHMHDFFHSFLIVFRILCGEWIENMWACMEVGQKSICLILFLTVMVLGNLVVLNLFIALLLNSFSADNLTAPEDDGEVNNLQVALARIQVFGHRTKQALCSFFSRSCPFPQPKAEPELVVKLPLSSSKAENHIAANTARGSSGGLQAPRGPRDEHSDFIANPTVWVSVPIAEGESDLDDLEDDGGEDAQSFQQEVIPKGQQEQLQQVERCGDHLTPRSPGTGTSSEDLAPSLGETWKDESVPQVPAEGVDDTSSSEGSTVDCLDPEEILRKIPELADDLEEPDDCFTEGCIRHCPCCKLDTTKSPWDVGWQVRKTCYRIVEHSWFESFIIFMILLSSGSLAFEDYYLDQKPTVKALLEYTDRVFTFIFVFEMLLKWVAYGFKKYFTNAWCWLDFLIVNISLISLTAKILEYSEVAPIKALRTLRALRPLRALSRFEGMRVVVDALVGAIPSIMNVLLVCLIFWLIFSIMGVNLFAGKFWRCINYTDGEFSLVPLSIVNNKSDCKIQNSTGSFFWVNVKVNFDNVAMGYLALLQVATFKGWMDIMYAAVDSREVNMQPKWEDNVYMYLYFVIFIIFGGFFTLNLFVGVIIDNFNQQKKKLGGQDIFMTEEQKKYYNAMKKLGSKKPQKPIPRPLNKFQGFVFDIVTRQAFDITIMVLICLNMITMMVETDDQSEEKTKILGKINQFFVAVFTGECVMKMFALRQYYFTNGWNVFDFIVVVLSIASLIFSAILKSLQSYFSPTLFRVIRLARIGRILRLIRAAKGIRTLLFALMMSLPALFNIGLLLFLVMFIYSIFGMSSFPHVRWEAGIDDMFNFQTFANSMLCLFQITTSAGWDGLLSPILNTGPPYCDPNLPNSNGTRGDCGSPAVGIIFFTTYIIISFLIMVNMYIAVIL

IC50 [nM] | SMILES
3 | NC(=O)c1cc(NC(=O)c2c(Oc3ccc(OC(F)(F)F)cc3Cl)ccc(C(F)(F)F)c2F)ccc1F [Compound 9, N-(3-carbamoyl-4-fluoro-phenyl)-6-[2-chloro-4-(trifluoromethoxy)phenoxy]-2-fluoro-3-(trifluoromethyl)benzamide]
10 | NC(=O)c1cc(NC(=O)c2c(Oc3ccc(OC(F)(F)F)cc3F)ccc(C(F)(F)F)c2F)ccc1F [Compound 21, N-(3-carbamoyl-4-fluoro-phenyl)-2-fluoro-6-[2-fluoro-4-(trifluoromethoxy)phenoxy]-3-(trifluoromethyl)benzamide]

Same assay, conditions: HEK cells expressing human NaV 1.8, HS (human serum) in compound loading buffer, 11 point dose response, top dose 3 μM, Table 20A, read-out: Nav 1.8 MedChem Optical Assay EVIPR Assay Method A HS IC50

SMILES | IC50 [nM]
[2H]C([2H])([2H])Oc1cc(OC(F)(F)F)ccc1Oc1ccc(C(F)(F)F)c(F)c1C(=O)Nc1ccc(C(N)=O)nc1C [Compound 188, 5-[[2-Fluoro-6-[2-(trideuteriomethoxy)-4-(trifluoromethoxy)phenoxy]-3-(trifluoromethyl)benzoyl]amino]-6-methyl-pyridine-2-carboxamide] | 160
[2H]C([2H])([2H])Oc1c(Oc2ccc(OC(F)(F)F)c(F)c2C(=O)Nc2ccnc(C(N)=O)c2)ccc(OC(F)(F)F)c1F [Compound 225, 4-[[2-Fluoro-6-[3-fluoro-2-(trideuteriomethoxy)-4-(trifluoromethoxy)phenoxy]-3-(trifluoromethoxy)benzoyl]amino]pyridine-2-carboxamide] | 3
NC(=O)c1cc(NC(=O)c2c(Cl)cc(Cl)cc2Oc2ccc(F)cc2)ccn1 [Compound 177, 4-[[2,4-Dichloro-6-(4-fluorophenoxy)benzoyl]amino]pyridine-2-carboxamide] | 460
NC(=O)c1cc(NC(=O)c2c(Oc3cccc4c3OCC4)ccc(C(F)(F)F)c2F)ccc1F [Compound 58, N-(3-Carbamoyl-4-fluoro-phenyl)-6-(2,3-dihydrobenzofuran-7-yloxy)-2-fluoro-3-(trifluoromethyl)benzamide] | 190
[2H]C([2H])([2H])Oc1cc(OC(F)(F)F)ccc1Oc1cc(Cl)cc(Cl)c1C(=O)Nc1ccnc(C(N)=O)c1 [Compound 179, 4-[[2,4-Dichloro-6-[2-(trideuteriomethoxy)-4-(trifluoromethoxy)phenoxy]benzoyl]amino]pyridine-2-carboxamide] | 10
Cc1cc(F)c(C(N)=O)cc1NC(=O)c1c(Oc2ccc(OC(F)(F)F)cc2)ccc(C(F)(F)F)c1F [Compound 124, N-(5-Carbamoyl-4-fluoro-2-methyl-phenyl)-2-fluoro-6-[4-(trifluoromethoxy)phenoxy]-3-(trifluoromethyl)benzamide] | 220
NC(=O)c1cc(NC(=O)c2c(Oc3ccc(F)cc3)ccc(C(F)(F)F)c2F)ccn1 [Compound 50, 4-[[2-fluoro-6-(4-fluorophenoxy)-3-(trifluoromethyl)benzoyl]amino]pyridine-2-carboxamide] | 51
NC(=O)c1cc(NC(=O)c2c(Oc3ccc(OC(F)(F)F)cc3)cccc2C(F)(F)F)ccc1F [Compound 39, N-(3-Carbamoyl-4-fluoro-phenyl)-2-[4-(trifluoromethoxy)phenoxy]-6-(trifluoromethyl)benzamide] | 210
[2H]C([2H])([2H])c1c(Oc2ccc(C(F)(F)F)c(F)c2C(=O)Nc2ccnc(C(N)=O)c2)ccc(OC(F)(F)F)c1F [Compound 232, 4-[[2-Fluoro-6-[3-fluoro-2-(trideuteriomethyl)-4-(trifluoromethoxy)phenoxy]-3-(trifluoromethyl)benzoyl]amino]pyridine-2-carboxamide] | 17
[2H]C([2H])([2H])Oc1cc(OC(F)(F)F)ccc1Oc1ccc(C(F)(F)F)c(F)c1C(=O)Nc1cc(C(N)=O)ncc1C [Compound 137, 4-[[2-Fluoro-6-[2-(trideuteriomethoxy)-4-(trifluoromethoxy)phenoxy]-3-(trifluoromethyl)benzoyl]amino]-5-methyl-pyridine-2-carboxamide] | 5

The remaining lines, values ahead:

IC50 [nM] | SMILES
7 | Cc1cc(OC(F)(F)F)ccc1Oc1ccc(C(F)(F)F)c(F)c1C(=O)Nc1ccnc(C(N)=O)c1 [Compound 59, 4-[[2-fluoro-6-[2-methyl-4-(trifluoromethoxy)phenoxy]-3-(trifluoromethyl)benzoyl]amino]pyridine-2-carboxamide]
40 | COc1c(C(F)(F)F)ccc(Oc2ccc(OC(F)(F)F)cc2)c1C(=O)Nc1ccnc(C(N)=O)c1 [Compound 91, 4-[[2-Methoxy-6-[4-(trifluoromethoxy)phenoxy]-3-(trifluoromethyl)benzoyl]amino]pyridine-2-carboxamide]
2 | COc1cc(OC(F)(F)F)ccc1Oc1ccc(C(F)(F)F)c(OC)c1C(=O)Nc1ccc(F)c(C(N)=O)c1 [Compound 92, N-(3-Carbamoyl-4-fluoro-phenyl)-2-methoxy-6-[2-methoxy-4-(trifluoromethoxy)phenoxy]-3-(trifluoromethyl)benzamide]
56 | COc1cc(OC(F)(F)F)ccc1Oc1cc2c(cc1C(=O)Nc1ccc(F)c(C(N)=O)c1)OC(F)(F)O2 [Compound 122, N-(3-Carbamoyl-4-fluoro-phenyl)-2,2-difluoro-6-[2-methoxy-4-(trifluoromethoxy)phenoxy]-1,3-benzodioxole-5-carboxamide]
112 | COc1cc(OC(F)(F)F)ccc1Oc1cc(C(F)(F)F)ncc1C(=O)Nc1cccc(C(N)=O)c1 [Compound 29, N-(3-Carbamoylphenyl)-4-[2-methoxy-4-(trifluoromethoxy)phenoxy]-6-(trifluoromethyl)pyridine-3-carboxamide]
10 | COc1cc(OC(F)(F)F)ccc1Oc1cnc(C(F)(F)F)c(F)c1C(=O)Nc1cc(C(N)=O)ncc1C [Compound 143, N-(2-Carbamoyl-5-methyl-4-pyridyl)-3-fluoro-5-[2-methoxy-4-(trifluoromethoxy)phenoxy]-2-(trifluoromethyl)pyridine-4-carboxamide]
20 | COc1cc(OC(F)(F)F)ccc1Oc1cc(C(F)(F)F)ncc1C(=O)Nc1ccc(F)c(C(N)=O)c1 [Compound 30, N-(3-Carbamoyl-4-fluoro-phenyl)-4-[2-methoxy-4-(trifluoromethoxy)phenoxy]-6-(trifluoromethyl)pyridine-3-carboxamide]
63 | COc1cc(OC(F)(F)F)ccc1Oc1cc(C(C)(C)C)ncc1C(=O)Nc1ccnc(C(N)=O)c1 [Compound 93, 6-tert-Butyl-N-(2-carbamoyl-4-pyridyl)-4-[2-methoxy-4-(trifluoromethoxy)phenoxy]pyridine-3-carboxamide]
123 | COc1cc(OC(F)(F)F)ccc1Oc1cc(C2CC2(F)F)ncc1C(=O)Nc1ccnc(C(N)=O)c1 (centres unmarked) [Compound 107, N-(2-Carbamoyl-4-pyridyl)-6-(2,2-difluorocyclopropyl)-4-[2-methoxy-4-(trifluoromethoxy)phenoxy]pyridine-3-carboxamide]
40 | COc1cc(OC(F)(F)F)ccc1Oc1cc(C2CC2)ncc1C(=O)Nc1ccc(F)c(C(N)=O)c1 [Compound 43, N-(3-Carbamoyl-4-fluoro-phenyl)-6-cyclopropyl-4-[2-methoxy-4-(trifluoromethoxy)phenoxy]pyridine-3-carboxamide]
48 | COc1cc(OC(F)(F)F)ccc1Oc1cc(C2(C(F)(F)F)CC2)ncc1C(=O)Nc1ccnc(C(N)=O)c1 [Compound 119, N-(2-Carbamoyl-4-pyridyl)-4-[2-methoxy-4-(trifluoromethoxy)phenoxy]-6-[1-(trifluoromethyl)cyclopropyl]pyridine-3-carboxamide]

— patent US12281057B2 (VERTEX PHARMACEUTICALS INCORPORATED, priority 2017, dated 2025)
